Patent publication EP1399158B1, “NON-THERAPEUTIC METHOD OF SUPPRESSING OESTRUS IN MAMMALIAN NON-HUMAN ANIMAL” (Vetcare Oy, priority 2001, dated 2002)

How the values were obtained:
[1] = test system: Estradiol-17-β and progesterone; test: Hormonal analyses of serum samples (estradiol assay/DPC, Coat-A-Count Progesterone/DPC) in the trial; type: in vivo; details: six beagle bitches, 3 mg/dog/day for 21 days
Protocol: (§1) A medical trial was conducted at University of Kuopio with six (6) beagle bitches the average weight of which was 10 kg and the age ranged from 1 year and 1 month to 3 years and 11 months. The dogs were given finrozole at a dose of 3 mg/dog/day from the first day of oestrus signs for 21 days. The development of oestrus signs were followed daily and serum samples collected twice a week. The sexual behaviour of a fertile male and the bitches was recorded. The male was allowed to mount and mate the bitches.
Hormonal analyses were carried out at Swedish University of Agricultural Sciences in the Department of Clinical Chemistry Estradiol-17-β (the modified estradiol assay/DPC) and progesterone (Coat-A-Count Progesterone /DPC) were analysed.

beagle bitches = test: Medical trial of oestrus suppression in beagle bitches (oestrus signs, mating behaviour, vaginal cytology, side effects); type: in vivo
Protocol: as §1

[2] = six beagle bitches, 3 mg/dog/day for 21 days

For N#Cc1ccc(C(C(O)Cc2ccc(F)cc2)n2cncn2)cc1 (single isomer, unassigned) [finrozole, 1-[1-(4-cyanophenyl)-3-(4-fluorophenyl)-2-hydroxypropyl]-1,2,4-triazole, diasteroisomer a + d], the “time after starting the treatment during which serum estrogen levels decreased” value [1] was 4 to 13 days, the Progesterone levels ([1]; serum) was “increased in five bitches of six” and the serum estrogen levels ([1]; serum samples twice a week) was “decreased in all bitches”. The “bitches mated (oestrus continued)” value (beagle bitches; of the four bitches in which oestrus continued, fertile male allowed to mount and mate, 3 mg/dog/day for 21 days) was “Three of them were mated”, the bitches conceived (beagle bitches; of the three mated bitches, 3 mg/dog/day for 21 days) was “two conceived” and the “oestrus signs according to vaginal cytology” value (beagle bitches; [2]) was “no difference could be detected”. For the same molecule, the “side effects during the treatment” value (beagle bitches; [2]) was “No side effects were seen” and the Oestrus signs (beagle bitches; six beagle bitches, 3 mg/dog/day from the first day of oestrus signs for 21 days) was “disappeared in two bitches of six”.
